In patent US20250360117A1, “KCNT1 INHIBITORS COMPRISING AN ISOXAZOLE OR OXADIAZOLE CORE AND METHODS OF USE” (PRAXIS PRECISION MEDICINES, INC., priority 2022, published 2025):
“And” between values parts separate entries of the source, which are not always exact repeats. Equal values may be shown once. “Also recorded” adds a separate entry of the source.

Legend:
[1] = Brain exposure in pups after maternal dosing (LC-MS/MS); type: in vivo, mouse; conditions: KCNT1^R455H/R455H pups, individual, brain collected when found deceased; maternal 75 mg/kg s.c.
Procedure: (§1) Whole brains were collected from all pups at 14 days after birth or at the time they are found deceased. Tails were genotyped through an automated system (Transnetyx) which was previously validated against PCR-based RFLP and sequencing. The whole brains were analyzed to determine brain exposure of Formula (I-A).
Bioanalysis of Brain Samples: Brain tissue was homogenized in 10:1 (v/wt) ratio using 10 mM PBS in methanol (2:1, v/v). 20 μL of samples were then precipitated with 200 μL IS solution (100 ng/mL Labetalol & 100 ng/mL Tolbutamide in ACN). The mixture was vortex-mixed and centrifuged at 4000 rpm for 15 min, 4° C. An aliquot of 100 μL supernatant was transferred to a sample plate and mixed with 100 μL water. The plate was shaken at 800 rpm for 10 minutes. 1 μL supernatant was then injected for LC-MS/MS analysis. A 1-3000 ng/ml PRX-0002904 calibration curve was prepared in mouse brain homogenate. Ultra-performance liquid chromatography (UPLC) parameters conditions are provided in Table 5 below, and the results are shown in Table 6 below.

[2] = test system: Kcnt1^R455H/+ heterozygous mice; test: Spontaneous interictal epileptiform discharges (spikes) on EEG; type: in vivo, mouse; conditions: 75 mg/kg s.c.
From the text: Infrequent spontaneous seizures also occur in some Kcnt1^R455H/+ heterozygous mice. This experiment sought to determine if administration of a compound of Formula (I-A) could reduce interictal spikes.
Animals: Adult Kcnt1^R455H/+ heterozygous mice on a C57/B6J background were used in all experiments disclosed in this example. Mice were approximately 2-3 months old. No preference was made for male or female animals. This strain is almost always stillborn in the homozygous condition. Seizures occur in some but not all heterozygotes, and interictal discharges occurs reliably.
Implantation of EEG electrodes: Mice were anesthetized with inhaled isoflurane 3-4% induction followed by approximately 1-1.5% maintenance titrated to effect. The head was fixed in a Kopf stereotactic apparatus, and the scalp was sterilized with povidone-iodine. The temperature was regulated to 37 degrees Celsius with a heating pad and rectal probe. Pre-emptive analgesia was provided with subgaleal bupivacaine 0.1% administered to form a wheal on the scalp, no more than 0.08 mL/10 g body weight. A linear midline scalp incision was made from behind the eyes to expose skull markers. Four holes were drilled (#60 drill bit): two anterior to the coronal suture (for left and right active recording), and two ⅔ of the way from the frontal to lambdoid suture (for reference and ground), […]. Screw electrodes were inserted in each burr hole (size W00-96×1.6 mm soldered to 15 mm insulated wire) and connected to a plastic pedestal (PlasticsOne E363). This assembly was then secured with dental cement. Meloxicam 5 mg/kg IP was given for post-operative analgesia.
Drug preparation for mice under EEG: A 7.5 mg/mL solution of a compound of Formula (I-A) was prepared on the day of injection in 10% DMSO/10% Solutol/80% deionized water. After at least 72 hours of baseline recording, the compound of Formula (I-A) was delivered subcutaneously at a dose of 75 mg/kg based on pre-surgical body weight.
EEG recording and analysis: Mice were held in a heated cage for at least 24 hours to recover before connection to the EEG recording system. Two-channel EEG with video was recorded using a Compumedics Grael EEG amplifier at 512 Hz sampling rate. The entire EEG was reviewed manually, and all interictal discharges and seizures were identified and marked. Video recordings were used to confirm epileptiform activity. Mice that had adequate recording quality and interictal spikes were selected for drug delivery. […] EEG recordings were manually scored by a reviewer blinded to treatment group. […]
EEG data were collected and reviewed in Compumedics Profusion. […] Average interictal discharge rates were determined in the baseline period and in the first, second, and third post-injection days (FIG. 3A). […]

[3] = test system: Cortical neurons from Kcnt1^R455H heterozygous mice; test: Neuronal electrophysiology (current clamp and voltage clamp); type: cell-based, mouse; conditions: 10 μM, 20 minutes, vs vehicle control
Procedure: Cortical neurons from Kcnt1^R455H heterozygous mice were cultured and treated for 20 minutes with 10 μM of a compound of Formula (I-A) in DMSO. Presumed glutamatergic neurons were identified based on pyramidal morphology. Presumed GABAergic neurons were identified based on spindle morphology (and fast spiking pattern in the control recordings). Current clamp and voltage clamp recordings were performed on an Axon Multiclamp 700B amplifier. It was observed that pyramidal cells treated with vehicle control had many action potentials and mild adaptation in response to an inward current and large outward currents with depolarization.

[4] = test system: Kcnt1^R455H/+ heterozygous mice; test: PTZ-induced seizures in Kcnt1^R455H/+ heterozygous mice; type: in vivo, mouse; conditions: for Convulsive seizure latency: hazard ratio (drug/vehicle): log rank test; for Latency (s) to clonic or tonic seizures with loss of posture: individual animals, 1320 s = no seizure observed over the experiment, 75 mg/kg
Procedure: Kcnt1^R455H/+ heterozygous mice have increased sensitivity to PTZ seizure induction as compared with wild-type littermates. It was determined herein whether a compound of Formula (I-A) delivered prior to PTZ could delay the onset of convulsive seizures. Formula (I-A) (75 mg/kg s.c.) or a vehicle control was administered as a single dose. After a pretreatment period of one or two hours, mice were administered PTZ at a dose of 55 mg/kg for induction of seizures. Seizures were then scored based on behavior (no EEG). The latency to convulsive seizures was compared between groups to determine if the compound can prevent induced seizures.
Animals: Adult Kcnt1^R455H/+ heterozygous C57/B6J mice were used in this example. Mice were approximately 2 months old. No preference was made for male or female animals.
Drug preparation and delivery: A 7.5 mg/mL solution of a compound of Formula (I-A) was prepared on each day of injection in 10% DMSO/10% Solutol/80% deionized water with a volume sufficient for 10-20 animals. After at least 30 minutes of acclimatization to the testing environment, either the drug or vehicle control was delivered to each animal subcutaneously at a dose of 75 mg/kg based on current body weight.
PTZ injection and testing: Kcnt1^R455H/+ mice were tested with PTZ 55 mg/kg IP administered 1 or 2 hours after administration of either the compound of Formula (I-A) 75 mg/kg SC or vehicle control. Mice were then monitored continuously for 30 min by an observer blinded to treatment group. […] Latency to first clonic seizure with loss of posture was recorded and compared using the time to event analysis; log-rank Mantel-Cox in GraphPad Prism, p<0.05 was considered statistically significant. Seizures induced by PTZ were scored using a modified Racine scale, and the latency to convulsive seizures was compared between drug and vehicle groups (log rank test).
Behavior was scored live, and mice were recorded on video for later confirmation. Seizure severity scores were based on a recent report that is specifically designed for mouse PTZ experiments (Van Erum et al., Epilepsy and Behavior 2019 June; 95:51-55). Behavioral seizure scores were as follows: • −1: normal baseline • 0: whisker trembling • 1: behavioral arrest • 2: facial jerking • 3: neck jerks/myoclonus • 4: clonic (sitting) • 5: clonic, tonic-clonic (lying on belly) • 6: clonic, tonic-clonic (lying on side), and wild jumping • 7: tonic extension, possibly leading to respiratory arrest and death.
The time at which mice reached each stage was recorded. It was difficult to reliably ascertain grade 0-2 seizures without the aid of EEG, and there was inconsistency between reviewers for stage 3-5 seizures. As the clearest and most consistent (between examiners) scores were for stage 6-7, only these were used for reporting and analysis, although earlier scores were also recorded and saved. Latency to stage 6 or above seizures were plotted as survival curves, and differences were assessed with a long rank test. Scoring was cut off after 22 minutes post-PTZ administration (1320 seconds).

Kcnt1^R455H/R455H pups = test: Survival of R455H homozygous pups after dosing of pregnant dams; type: in vivo, mouse; conditions: for Age survived before death or euthanasia: individual, dams 75 mg/kg s.c.
Procedure: Quraishi et. al. PMID 32081855. Without wishing to be bound by theory, it is thought that inhibition of mutant channel activity by KCNT1 inhibitors, such as the compound of Formula (I-A), during gestation might aid the survival of homozygous pups. Timed matings were performed on heterozygote breeding pairs, and a compound of Formula (I-A) was administered to the pregnant dams. No dosing of the live pups with Formula (I-A) was performed. All surviving and stillborn offspring that could be recovered were then genotyped, and brains were dissected and sent for measurement of Formula (I-A).
Breeding and dosing: Timed matings were performed on three KCNT1^R455H+×KCNT1^R455H/+ breeding pairs. Maternal injections of Formula (I-A) (75 mg/kg s.c.) were performed for four pregnant dams from three Kcnt1^R455H/+×Kcnt1^R455H/+ breeding pairs and one Kcnt1^+/+×Kcnt1^+/+ breeding pair. Starting approximately 13 days after the mating plug was identified, pregnant dams were administered 75 mg/kg Formula (I-A) (s.c.) every 3 days (as permitted) through the time of delivery. There was some variability in the days of administration as noted. Offspring were observed daily after delivery. The records of litters and treatment dates are shown below in Table 3. In round one, two doses of Formula (I-A) were delivered to each of the two dams from the Kcnt1^R455H/+×Kcnt1^R455H/+ crosses. […] In round two, three doses of Formula (I-A) were delivered to one dam from a Kcnt1^R455H/+×Kcnt1^R455H/+ cross.
as §1

C[C@H](NC(=O)c1cc(C(F)(F)F)nn1C)c1nc(-c2ccnc(C(F)(F)F)c2)no1 [Formula (I-A)]
Brain Homogenate Concentration [1]: 15.2 ng/mL and 133 ng/mL and 109 ng/mL and 16.9 ng/mL | Brain Homogenate Concentration (ng/mL) [1]: BLQ | Final brain concentration [1]: 167 ng/g and 1458 ng/g and 1200 ng/g and 354 ng/g | Final brain concentration (ng/g) [1]: BLQ | interictal spike rate, first 24 hours after dosing vs preceding 72-hour baseline ([2]; N=12, p=0.005): marked per-animal reduction; also recorded: reduced | interictal spike rate, second day after dosing vs baseline ([2]; N=12, p=0.042): reduction persisted | interictal spike rate reduction, third day after dosing vs baseline ([2]; N=12, p>0.999): no longer evident | mice with a decrease in spike rates from baseline to Day 1 ([2]; baseline-adjusted spike rates): 11 out of 12 | action potential firing and outward currents, pyramidal cells (presumed glutamatergic) [3]: less sustained action potential firing and diminished outward currents | spike rates and outward currents, presumed GABAergic neurons [3]: markedly reduced spike rates and outward currents | animals with PTZ-induced convulsive seizures ([4]; 75 mg/kg s.c., 1 hour pretreatment before PTZ 55 mg/kg IP, 1/16 animals, vehicle 6/15 (40%)): 6% | Convulsive seizure latency: hazard ratio (drug/vehicle) ([4]; 75 mg/kg s.c., 1 hour pretreatment before PTZ 55 mg/kg IP): 0.13 (95% CI 0.03-0.58) | Convulsive seizure latency: hazard ratio (drug/vehicle) ([4]; 75 mg/kg s.c., 2 hours pretreatment before PTZ 55 mg/kg IP): 0.056 (95% CI 0.019-0.161) | mice with a seizure that reached stage 6-7 ([4]; 75 mg/kg s.c., 2 hours prior to PTZ 55 mg/kg IP, 1 out of 20 mice, vehicle 13 out of 20 (65%)): 5% | effect on PTZ-induced seizures (in words) ([4]; 75 mg/kg s.c., compared to vehicle-treated mice): anticonvulsant against PTZ-induced seizures; also recorded: significantly increased the latency to and reduced the incidence of PTZ-induced seizures | Latency (s) to clonic or tonic seizures with loss of posture ([4]; 75 mg/kg s.c. 1 hour prior to PTZ): 1320 s (14×) and 190 s and 647 s | Latency (s) to clonic or tonic seizures with loss of posture ([4]; 75 mg/kg s.c. 2 hours prior to PTZ): 1320 s (19×) and 294 s | Age survived before death or euthanasia (Kcnt1^R455H/R455H pups; Kcnt1^+/+ pups, 2 or 3 doses, brains collected at 14 days): 14 days | Age survived before death or euthanasia (Kcnt1^R455H/R455H pups; Kcnt1^R455H/+ pups, 2 or 3 doses, brains collected at 14 days): 14 days | Age survived before death or euthanasia (Kcnt1^R455H/R455H pups; Kcnt1^R455H/R455H pups, 2 doses (litters 1, 2) or 3 doses (litter 3), pups not dosed, dams given 2 doses): 1 days (3×) and 2 days | Age survived before death or euthanasia (Kcnt1^R455H/R455H pups; Kcnt1^R455H/R455H pups, 2 doses (litters 1, 2) or 3 doses (litter 3), pups not dosed, dams given 3 doses): 4 days | Kcnt1^R455H/R455H pups that survived multiple days (Kcnt1^R455H/R455H pups; maternal dosing 75 mg/kg s.c.): Two of five | survival of Kcnt1^R455H/R455H pups born alive (in words) (Kcnt1^R455H/R455H pups; round one: two doses 75 mg/kg s.c. to each of two dams, four pups born alive): three surviving for one day and one surviving two days | survival of Kcnt1^R455H/R455H pup (in words) (Kcnt1^R455H/R455H pups; round two: three doses 75 mg/kg s.c. to one dam, one pup): survived for four days
